Measurements from paper PMC5218480 (PLoS ONE, 2017).

System: MV-4-11 cells
Assay: Gene expression microarray analysis (Affymetrix PrimeView) and GSEA
Format: cell-based, human
Parameters: RFU PODN (11730768_x_at) / Fold change /veh PODN (11730768_x_at) / RFU LINC00158 (11744669_a_at) / Fold change /veh LINC00158 (11744669_a_at) / RFU DUSP10 (11751237_a_at) / Fold change /veh DUSP10 (11751237_a_at) / RFU ID3 (11757404_x_at) / Fold change /veh ID3 (11757404_x_at) / RFU PLEKHG5 (11737974_s_at) / Fold change /veh PLEKHG5 (11737974_s_at) / RFU LRRC4B (11730491_at) / Fold change /veh LRRC4B (11730491_at) / RFU GIMAP4 (11747438_a_at) / Fold change /veh GIMAP4 (11747438_a_at) / RFU KRT8 (11758183_x_at) / Fold change /veh KRT8 (11758183_x_at) / RFU CNN1 (11734310_a_at) / Fold change /veh CNN1 (11734310_a_at) / RFU VPS37D (11726825_at) / Fold change /veh VPS37D (11726825_at) / RFU C10orf10 (11716522_x_at) / Fold change /veh C10orf10 (11716522_x_at) / RFU KIR2DL2 /// KIR2DL4 /// KIR2DL5A /// KIR2DL5B /// KIR2DS1 /// KIR2DS2 /// KIR2DS3 /// KIR2DS4 /// KIR3DL3 /// KIR3DL3 /// KIR3DS1 (11738374_at) / Fold change /veh KIR2DL2 /// KIR2DL4 /// KIR2DL5A /// KIR2DL5B /// KIR2DS1 /// KIR2DS2 /// KIR2DS3 /// KIR2DS4 /// KIR3DL3 /// KIR3DL3 /// KIR3DS1 (11738374_at) / RFU C1QL1 (11718748_at) / Fold change /veh C1QL1 (11718748_at) / RFU TMPRSS4 (11747572_a_at) / Fold change /veh TMPRSS4 (11747572_a_at) / RFU HAMP (11756126_x_at) / Fold change /veh HAMP (11756126_x_at) / RFU RNFT2 (11725882_a_at) / Fold change /veh RNFT2 (11725882_a_at) / RFU NR4A2 (11747474_a_at) / Fold change /veh NR4A2 (11747474_a_at) / RFU ABCC12 (11746883_a_at) / Fold change /veh ABCC12 (11746883_a_at) / RFU TMEM136 (11760407_x_at) / Fold change /veh TMEM136 (11760407_x_at) / RFU CLDN22 /// WWC2 (11732394_at) / Fold change /veh CLDN22 /// WWC2 (11732394_at) / RFU HLA-DPB1 (11760878_x_at) / Fold change /veh HLA-DPB1 (11760878_x_at) / RFU SPINT1 (11716480_a_at) / Fold change /veh SPINT1 (11716480_a_at) / RFU GAP43 (11754022_s_at) / Fold change /veh GAP43 (11754022_s_at) / RFU A4GNT (11735810_at) / Fold change /veh A4GNT (11735810_at) / RFU PRB3 (11715151_x_at) / Fold change /veh PRB3 (11715151_x_at) / RFU TUBB4B (11761932_at) / Fold change /veh TUBB4B (11761932_at) / RFU CAPN14 (11732068_a_at) / Fold change /veh CAPN14 (11732068_a_at) / RFU TMCC2 (11721928_a_at) / Fold change /veh TMCC2 (11721928_a_at) / RFU IRGQ (11745062_a_at) / Fold change /veh IRGQ (11745062_a_at) / RFU FAM174B (11720279_a_at) / Fold change /veh FAM174B (11720279_a_at) / RFU TMPRSS4 (11748680_a_at) / Fold change /veh TMPRSS4 (11748680_a_at) / RFU FAM212B (11763350_a_at) / Fold change /veh FAM212B (11763350_a_at) / RFU PLEKHG5 (11743358_a_at) / Fold change /veh PLEKHG5 (11743358_a_at) / RFU ZSCAN30 (11745921_a_at) / Fold change /veh ZSCAN30 (11745921_a_at) / RFU CMKLR1 (11741424_a_at) / Fold change /veh CMKLR1 (11741424_a_at) / RFU LOC101060620 /// MAPK8IP1 (11723275_at) / Fold change /veh LOC101060620 /// MAPK8IP1 (11723275_at) / RFU SPTSSB (11747773_x_at) / Fold change /veh SPTSSB (11747773_x_at) / RFU PRSS12 (11739890_at) / Fold change /veh PRSS12 (11739890_at) / RFU BIN1 (11741810_x_at) / Fold change /veh BIN1 (11741810_x_at) / RFU WNT11 (11732464_a_at) / Fold change /veh WNT11 (11732464_a_at) / RFU C10orf10 (11716521_a_at) / Fold change /veh C10orf10 (11716521_a_at) / RFU C5orf56 (11738089_at) / Fold change /veh C5orf56 (11738089_at) / RFU CYB561 (11721691_x_at) / Fold change /veh CYB561 (11721691_x_at) / RFU ANKRD19P (11752326_a_at) / Fold change /veh ANKRD19P (11752326_a_at) / RFU OR2T12 /// OR2T33 /// OR2T8 (11738714_s_at) / Fold change /veh OR2T12 /// OR2T33 /// OR2T8 (11738714_s_at) / RFU VCAN (11748164_a_at) / Fold change /veh VCAN (11748164_a_at) / RFU JSRP1 (11732532_at) / Fold change /veh JSRP1 (11732532_at) / RFU KRTAP10-11 (11738290_x_at) / Fold change /veh KRTAP10-11 (11738290_x_at) / RFU MYO3A (11730013_a_at) / Fold change /veh MYO3A (11730013_a_at) / RFU EBF3 (11725865_a_at) / Fold change /veh EBF3 (11725865_a_at) / RFU CAMK2N1 (11719241_x_at) / Fold change /veh CAMK2N1 (11719241_x_at) / RFU C5orf56 (11738088_a_at) / Fold change /veh C5orf56 (11738088_a_at) / RFU OLFML3 (11715873_a_at) / Fold change /veh OLFML3 (11715873_a_at) / RFU LOC100653217 /// NTM (11731650_a_at) / Fold change /veh LOC100653217 /// NTM (11731650_a_at) / RFU MAPK11 (11762145_a_at) / Fold change /veh MAPK11 (11762145_a_at) / RFU FIZ1 (11724087_x_at) / Fold change /veh FIZ1 (11724087_x_at) / RFU OASL (11726364_x_at) / Fold change /veh OASL (11726364_x_at) / RFU SOX15 (11748057_x_at) / Fold change /veh SOX15 (11748057_x_at) / RFU CD79A (11719716_a_at) / Fold change /veh CD79A (11719716_a_at) / RFU HIST1H1D (11736915_at) / Fold change /veh HIST1H1D (11736915_at) / RFU CASKIN2 (11723855_a_at) / Fold change /veh CASKIN2 (11723855_a_at) / RFU LOC730098 (11760151_x_at) / Fold change /veh LOC730098 (11760151_x_at) / RFU OR4N2 (11742367_at) / Fold change /veh OR4N2 (11742367_at) / RFU PRRT2 (11749266_a_at) / Fold change /veh PRRT2 (11749266_a_at) / RFU SNX32 (11753110_a_at) / Fold change /veh SNX32 (11753110_a_at) / RFU CDHR5 (11726645_a_at) / Fold change /veh CDHR5 (11726645_a_at) / RFU RCAN1 (11760418_a_at) / Fold change /veh RCAN1 (11760418_a_at) / RFU FAM167A (11723789_a_at) / Fold change /veh FAM167A (11723789_a_at) / RFU FAM26E (11764081_at) / Fold change /veh FAM26E (11764081_at) / RFU ISYNA1 (11749810_s_at) / Fold change /veh ISYNA1 (11749810_s_at) / RFU ACY1 (11761880_at) / Fold change /veh ACY1 (11761880_at) / RFU 11764098_at / Fold change /veh 11764098_at / RFU SAMD14 (11745864_x_at) / Fold change /veh SAMD14 (11745864_x_at) / RFU NPB (11741838_a_at) / Fold change /veh NPB (11741838_a_at) / RFU TMPRSS6 (11731388_a_at) / Fold change /veh TMPRSS6 (11731388_a_at) / RFU KRTAP10-2 (11738614_at) / Fold change /veh KRTAP10-2 (11738614_at) / RFU ARHGAP8 /// PRR5-ARHGAP8 (11727945_x_at) / Fold change /veh ARHGAP8 /// PRR5-ARHGAP8 (11727945_x_at) / RFU KRTAP5-7 /// NADSYN1 (11734609_at) / Fold change /veh KRTAP5-7 /// NADSYN1 (11734609_at) / RFU RASL12 (11751679_a_at) / Fold change /veh RASL12 (11751679_a_at) / RFU CDKN2B (11736163_a_at) / Fold change /veh CDKN2B (11736163_a_at) / RFU PRF1 (11729649_at) / Fold change /veh PRF1 (11729649_at) / RFU, ZNF638 /// ZNF638-IT1 / Fold change vs veh, ZNF638 /// ZNF638-IT1 / RFU, PANK3 / Fold change vs veh, PANK3 / RFU, SH3YL1 / Fold change vs veh, SH3YL1 / RFU, ZEB2 / Fold change vs veh, ZEB2 / RFU, NRIP1 / Fold change vs veh, NRIP1 / RFU, PTTG1IP / Fold change vs veh, PTTG1IP / RFU, CAPN2 / Fold change vs veh, CAPN2 / RFU, MED14 / Fold change vs veh, MED14 / RFU, SNORA58 / Fold change vs veh, SNORA58 / RFU, C1orf63 / Fold change vs veh, C1orf63 / RFU, LRRFIP1 / Fold change vs veh, LRRFIP1 / RFU, NDUFAF7 / Fold change vs veh, NDUFAF7 / RFU, SLC12A2 / Fold change vs veh, SLC12A2 / RFU, IBTK / Fold change vs veh, IBTK / RFU, ESF1 / Fold change vs veh, ESF1 / Fold change vs veh, TMEM50B / RFU, TAOK1 / Fold change vs veh, TAOK1 / RFU, ACBD3 / Fold change vs veh, ACBD3 / RFU, TMA16 / Fold change vs veh, TMA16 / RFU, RWDD3 / Fold change vs veh, RWDD3 / RFU, BCAT1 / Fold change vs veh, BCAT1 / RFU, EDEM3 / Fold change vs veh, EDEM3 / RFU, TMEM33 / Fold change vs veh, TMEM33 / RFU, WDR75 / Fold change vs veh, WDR75 / RFU, AHCTF1 / Fold change vs veh, AHCTF1 / RFU, TFRC / Fold change vs veh, TFRC / RFU, ZDHHC17 / Fold change vs veh, ZDHHC17 / RFU, NOM1 / Fold change vs veh, NOM1 / RFU, ARL8B / Fold change vs veh, ARL8B / RFU, ZBTB11 / Fold change vs veh, ZBTB11 / RFU, TAMM41 / Fold change vs veh, TAMM41 / RFU, KIAA1704 /// LOC100996395 / Fold change vs veh, KIAA1704 /// LOC100996395 / RFU, ING1 / Fold change vs veh, ING1 / RFU, TRMT61B / Fold change vs veh, TRMT61B / RFU, FUBP3 / Fold change vs veh, FUBP3 / RFU, TP53 / Fold change vs veh, TP53 / RFU, TNKS2 / Fold change vs veh, TNKS2 / RFU, ZFP14 / Fold change vs veh, ZFP14 / RFU, ACTR2 / Fold change vs veh, ACTR2 / RFU, PPP3R1 / Fold change vs veh, PPP3R1 / RFU, PIK3R1 / Fold change vs veh, PIK3R1 / RFU, HNRNPA1 / Fold change vs veh, HNRNPA1 / RFU, RNF170 / Fold change vs veh, RNF170 / RFU, ZNF28 / Fold change vs veh, ZNF28 / RFU, RNGTT / Fold change vs veh, RNGTT / RFU, OGT / Fold change vs veh, OGT / RFU, BRD1 / Fold change vs veh, BRD1 / RFU, MARS / Fold change vs veh, MARS / RFU, ZNF655 / Fold change vs veh, ZNF655 / RFU, FAHD1 / Fold change vs veh, FAHD1 / RFU, BDP1 / Fold change vs veh, BDP1 / RFU, LRRCC1 / Fold change vs veh, LRRCC1 / RFU, ARID1A / Fold change vs veh, ARID1A / RFU, ZNF146 / Fold change vs veh, ZNF146 / RFU, ZNF330 / Fold change vs veh, ZNF330 / RFU, GPN3 / Fold change vs veh, GPN3 / RFU, C9orf123 / Fold change vs veh, C9orf123 / RFU, N4BP2L2 / Fold change vs veh, N4BP2L2 / RFU, ARFIP1 / Fold change vs veh, ARFIP1 / RFU, FAM179B / Fold change vs veh, FAM179B / RFU, BCL10 / Fold change vs veh, BCL10 / RFU, UHRF1BP1L / Fold change vs veh, UHRF1BP1L / RFU, BET1 / Fold change vs veh, BET1 / RFU, CNOT2 / Fold change vs veh, CNOT2 / RFU, ZNF268 / Fold change vs veh, ZNF268 / Fold change vs veh, ZNF507 / RFU, DGCR2 / Fold change vs veh, DGCR2 / RFU, WDSUB1 / Fold change vs veh, WDSUB1 / Fold change vs veh, HSP90B1 /// MIR3652 / RFU, ADSS / Fold change vs veh, ADSS / RFU, GK / Fold change vs veh, GK / RFU, ZNF148 / Fold change vs veh, ZNF148 / RFU, TAF9 / Fold change vs veh, TAF9 / RFU, SLC1A5 / Fold change vs veh, SLC1A5 / RFU, SLMO2 / Fold change vs veh, SLMO2 / RFU, ABCC4 / Fold change vs veh, ABCC4 / RFU, LOC101060439 /// RAP1B / Fold change vs veh, LOC101060439 /// RAP1B / RFU, RFX7 / Fold change vs veh, RFX7 / RFU, GTPBP10 / Fold change vs veh, GTPBP10 / RFU, CNEP1R1 / Fold change vs veh, CNEP1R1 / RFU, BIVM-ERCC5 /// ERCC5 / Fold change vs veh, BIVM-ERCC5 /// ERCC5 / RFU, ILF3 / Fold change vs veh, ILF3 / RFU 11762660_at / Fold change /veh 11762660_at / RFU VCAN (11757783_s_at) / Fold change /veh VCAN (11757783_s_at) / RFU DDX43 (11728927_at) / Fold change /veh DDX43 (11728927_at) / RFU KRT8 (11758188_x_at) / Fold change /veh KRT8 (11758188_x_at) / RFU NKD1 (11759106_at) / Fold change /veh NKD1 (11759106_at) / RFU SRD5A1 (11742802_a_at) / Fold change /veh SRD5A1 (11742802_a_at) / RFU TPSAB1 /// TPSB2 (11721975_s_at) / Fold change /veh TPSAB1 /// TPSB2 (11721975_s_at) / RFU GSTM3 (11746129_a_at) / Fold change /veh GSTM3 (11746129_a_at) / RFU IL23R (11737362_x_at) / Fold change /veh IL23R (11737362_x_at) / RFU TMEM51 (11727254_a_at) / Fold change /veh TMEM51 (11727254_a_at) / RFU PIWIL2 (11732686_x_at) / Fold change /veh PIWIL2 (11732686_x_at) / RFU ORM1 (11744905_x_at) / Fold change /veh ORM1 (11744905_x_at) / RFU CCDC152 (11743942_at) / Fold change /veh CCDC152 (11743942_at) / RFU ECM1 (11717891_a_at) / Fold change /veh ECM1 (11717891_a_at) / RFU IL23R (11748794_a_at) / Fold change /veh IL23R (11748794_a_at) / RFU TNFAIP8L3 (11732012_x_at) / Fold change /veh TNFAIP8L3 (11732012_x_at) / RFU MBOAT4 (11741988_at) / Fold change /veh MBOAT4 (11741988_at) / RFU 11764193_at / Fold change /veh 11764193_at / RFU TMEM53 (11763286_at) / Fold change /veh TMEM53 (11763286_at) / RFU MAGEB2 (11727129_at) / Fold change /veh MAGEB2 (11727129_at) / RFU TMEM200A (11744735_a_at) / Fold change /veh TMEM200A (11744735_a_at) / RFU CCDC152 (11751479_a_at) / Fold change /veh CCDC152 (11751479_a_at) / RFU FAM211A (11726209_a_at) / Fold change /veh FAM211A (11726209_a_at) / RFU RGS16 (11746705_a_at) / Fold change /veh RGS16 (11746705_a_at) / RFU VCAN (11755009_s_at) / Fold change /veh VCAN (11755009_s_at) / RFU RHOB (11743442_s_at) / Fold change /veh RHOB (11743442_s_at) / RFU RGS16 (11720943_a_at) / Fold change /veh RGS16 (11720943_a_at) / RFU RGS16 (11720944_at) / Fold change /veh RGS16 (11720944_at) / RFU, VPS4B / Fold change vs veh, VPS4B / RFU, CREB1 / Fold change vs veh, CREB1 / RFU, DNAJC13 / Fold change vs veh, DNAJC13 / RFU, GNAQ / Fold change vs veh, GNAQ / RFU, CDK5R1 / Fold change vs veh, CDK5R1 / RFU, ZRANB3 / Fold change vs veh, ZRANB3 / RFU, CUL4A / Fold change vs veh, CUL4A / RFU, CCNY / Fold change vs veh, CCNY / RFU, UFL1 / Fold change vs veh, UFL1 / RFU, COG3 / Fold change vs veh, COG3 / RFU, DIAPH2 / Fold change vs veh, DIAPH2 / RFU, SKA2 / Fold change vs veh, SKA2 / RFU, AFF3 / Fold change vs veh, AFF3 / RFU, LMF1 / Fold change vs veh, LMF1 / RFU, IPO11 / Fold change vs veh, IPO11 / RFU, DFFB / Fold change vs veh, DFFB / RFU, FOXP1 / Fold change vs veh, FOXP1 / RFU, CARD8 / Fold change vs veh, CARD8 / RFU, STRN3 / Fold change vs veh, STRN3 / RFU, ADK / Fold change vs veh, ADK / RFU, RASSF2 / Fold change vs veh, RASSF2 / RFU, WIPF1 / Fold change vs veh, WIPF1 / RFU, LARP1B / Fold change vs veh, LARP1B / RFU, RASA1 / Fold change vs veh, RASA1 / RFU, RB1 / Fold change vs veh, RB1 / RFU, PPFIA1 / Fold change vs veh, PPFIA1 / RFU, MAT2A / Fold change vs veh, MAT2A / RFU, CCT5 / Fold change vs veh, CCT5 / RFU, WDR92 / Fold change vs veh, WDR92 / RFU, CUX1 / Fold change vs veh, CUX1 / RFU, TTC7A / Fold change vs veh, TTC7A / RFU, TMEM135 / Fold change vs veh, TMEM135 / RFU, DEPTOR / Fold change vs veh, DEPTOR / RFU, CPM / Fold change vs veh, CPM / RFU, DNAJB6 / Fold change vs veh, DNAJB6 / RFU, CACNA2D3 / Fold change vs veh, CACNA2D3 / RFU, DTX4 / Fold change vs veh, DTX4 / RFU, TFCP2 / Fold change vs veh, TFCP2 / RFU, GMCL1 /// GMCL1P1 / Fold change vs veh, GMCL1 /// GMCL1P1 / RFU, AEBP2 / Fold change vs veh, AEBP2 / RFU, SNHG1 /// SNORD22 /// SNORD25 /// SNORD26 /// SNORD27 /// SNORD28 /// SNORD29 /// SNORD31 / Fold change vs veh, SNHG1 /// SNORD22 /// SNORD25 /// SNORD26 /// SNORD27 /// SNORD28 /// SNORD29 /// SNORD31 / Fold change (Aza/veh), C12orf56 (ProbeSet 11735607_a_at) / Fold change (ACY-1035/veh), C12orf56 (ProbeSet 11735607_a_at) / Fold change (Aza/veh), FGFR1OP (ProbeSet 11751329_s_at) / Fold change (ACY-1035/veh), FGFR1OP (ProbeSet 11751329_s_at) / Fold change (Aza/veh), VPS36 (ProbeSet 11739960_a_at) / Fold change (ACY-1035/veh), VPS36 (ProbeSet 11739960_a_at) / RFU SYPL1 (11715823_x_at) / Fold change /veh SYPL1 (11715823_x_at) / RFU IGFBP7 (11715501_s_at) / Fold change /veh IGFBP7 (11715501_s_at) / RFU REEP3 (11722064_at) / Fold change /veh REEP3 (11722064_at) / RFU IGLL1 (11728026_x_at) / Fold change /veh IGLL1 (11728026_x_at): dose or concentration left out as unconfirmed
Settings: MV-4-11 cells, 48 hours

## Nc1ccc(-c2cccs2)cc1NC(=O)c1ccc2c(c1)cc(C1CC1)n2CCN1CCOCC1 [ACY-1035]
  RFU 11764098_at: 18.10 RFU
